Laboratory results: article PMC6694155, “PTPσ inhibitors promote hematopoietic stem cell regeneration” (Nature Communications, 2019)
Where “and” joins values, the source holds several entries; their conditions need not be identical. Identical values can stand only once.

Legend:
[1] = target: T1, PTPMEG1 (Megakaryocyte Protein-Tyrosine Phosphatase 1) (Homo sapiens, UniProt P29074); assay: PhosphataseProfiler screen: PTPMEG1; type: biochemical; conditions: replicates
T1 construct: purchased Eurofins Pharma Discovery Services UK
Description: (§1) Compound DJ001 was evaluated in a PhosphataseProfiler™ screen at 10 μM and 1 μM (2.7 μg/mL and 0.27 μg/mL) concentrations at Eurofins Pharma Discovery Services UK (Study number UK022-0004033) against a panel of 21 Phosphatases. In each experiment, the respective reference antagonist/agonist was tested directly with DJ001 and the data were compared with historical values determined at Eurofins. DJ001 compound inhibition was calculated as percentage inhibition of the enzymatic activity compared with control.

[2] = target: T2, PTP1B (Protein Tyrosine Phosphatase 1B) (Homo sapiens, UniProt P18031); assay: PhosphataseProfiler screen: PTP1B; type: biochemical; conditions: replicates
T2 construct: purchased Eurofins Pharma Discovery Services UK
Description: as §1

C57BL/6 mice = assay: Cytokine analysis in vivo (BM supernatant at day +5); design: species or system mouse; PTN: unit not given beside the values; IFN-g / IL-1a / IL-1b / IL-2 / IL-4 / IL-3 / IL-5 / IL-6 / IL-7 / IL-9 / IL-10 / IL-12(p40) / IL-12(p70) / LIF / IL-13 / LIX / IL-15 / IL-17 / IP-10 / CXCL12 / SCF / TPO / EGF / DKK / G-CSF / Eotaxin / GM-CSF / KC / MCP-1 / MIP-1a / MIP-1b / M-CSF / MIP-2 / MIG / RANTES / VEGF / TNF-a: unit not given here
Description: For in vitro cytokine measurements, 3.5 × 10^4 BM KSL cells were irradiated with 300 cGy and cultured in TSF media with and without 1 μg/mL DJ001. Non-irradiated KSL cells were cultured in TSF media with and without 1 μg/mL DJ001. At 12 h of culture, culture supernatants were collected for analysis. For in vivo cytokine measurements, adult C57BL/6 mice were irradiated with 750 cGy TBI and then treated with 5 mg/kg of DJ001 or vehicle, subcutaneously, from day + 1 to day + 5. Non-irradiated mice received the identical regimen of 5 mg/kg DJ001 or vehicle for 5 days. Mice were killed and BM cells were collected into IMDM. Cells were pelleted and the BM supernatant was collected and sent to the UCLA Immune Assessment Core for cytokine analysis. All samples were tested on a mouse 32-plex Cytokine/Chemokine panel platform from EMD Milipore using Luminex’s xMAP® immunoassay technology (Luminex, Inc.). In addition, the following cytokine levels were assessed by solid-phase ELISA assay according to the manufacturer’s description: CXCL12 (R&D Systems), SCF (R&D Systems), Thrombopoietin (TPO) (R&D Systems), PTN (Biomatik), DKK1 (R&D Systems), and EGF (R&D Systems).

p-PAK1 in BM KSL cells = assay: p-PAK1 phospho-flow cytometry of BM KSL cells; type: cell-based, mouse
Description: Intracellular flow cytometric analysis was performed on irradiated (300 cGy) or non-irradiated, sorted KSL cells after treatment with 1 μg/mL DJ001 or control (equal volumes of DMSO) for 24 h. At 24 h after irradiation, cells were fixed with 4% PFA for 10 min, followed by permeabilization using 0.25% saponin in PBS. Cells were washed again and stained with antibody at the recommended concentrations for 30 min at RT. Intracellular antibodies and phospho-flow antibodies used were as follows: FITC-conjugated anti-BCL-XL (Abcam, #26148, 1:100), active RAC1-GTP antibody (NewEast Biosciences, #26903, 1:100) and anti-PAK1 (phospho S144) + PAK2 (phospho S141) + PAK3 (phospho S154) antibody (Abcam, #40795, 1:100), and FITC-conjugated goat anti-rabbit IgG H&L (Abcam, #97050, 1:200).

[3] = 750cGy, Supplementary Figure 6c
[4] = 750cGy, Supplementary Figure 6d
[5] = NI (non-irradiated), Supplementary Figure 6c
[6] = NI (non-irradiated), Supplementary Figure 6d

T2 sequence (P18031 whole entry, species assumed): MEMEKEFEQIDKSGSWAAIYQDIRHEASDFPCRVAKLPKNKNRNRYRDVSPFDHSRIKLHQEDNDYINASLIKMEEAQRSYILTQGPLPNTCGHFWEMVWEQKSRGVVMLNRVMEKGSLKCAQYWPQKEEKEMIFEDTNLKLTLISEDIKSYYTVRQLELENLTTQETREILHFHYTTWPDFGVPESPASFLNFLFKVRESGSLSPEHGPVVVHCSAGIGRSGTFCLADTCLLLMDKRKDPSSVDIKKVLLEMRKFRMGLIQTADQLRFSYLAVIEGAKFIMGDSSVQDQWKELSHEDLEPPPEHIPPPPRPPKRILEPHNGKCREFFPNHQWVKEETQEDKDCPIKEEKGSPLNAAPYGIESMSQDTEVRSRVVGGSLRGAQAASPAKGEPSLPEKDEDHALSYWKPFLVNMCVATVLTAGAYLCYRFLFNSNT
T1 sequence (P29074 whole entry): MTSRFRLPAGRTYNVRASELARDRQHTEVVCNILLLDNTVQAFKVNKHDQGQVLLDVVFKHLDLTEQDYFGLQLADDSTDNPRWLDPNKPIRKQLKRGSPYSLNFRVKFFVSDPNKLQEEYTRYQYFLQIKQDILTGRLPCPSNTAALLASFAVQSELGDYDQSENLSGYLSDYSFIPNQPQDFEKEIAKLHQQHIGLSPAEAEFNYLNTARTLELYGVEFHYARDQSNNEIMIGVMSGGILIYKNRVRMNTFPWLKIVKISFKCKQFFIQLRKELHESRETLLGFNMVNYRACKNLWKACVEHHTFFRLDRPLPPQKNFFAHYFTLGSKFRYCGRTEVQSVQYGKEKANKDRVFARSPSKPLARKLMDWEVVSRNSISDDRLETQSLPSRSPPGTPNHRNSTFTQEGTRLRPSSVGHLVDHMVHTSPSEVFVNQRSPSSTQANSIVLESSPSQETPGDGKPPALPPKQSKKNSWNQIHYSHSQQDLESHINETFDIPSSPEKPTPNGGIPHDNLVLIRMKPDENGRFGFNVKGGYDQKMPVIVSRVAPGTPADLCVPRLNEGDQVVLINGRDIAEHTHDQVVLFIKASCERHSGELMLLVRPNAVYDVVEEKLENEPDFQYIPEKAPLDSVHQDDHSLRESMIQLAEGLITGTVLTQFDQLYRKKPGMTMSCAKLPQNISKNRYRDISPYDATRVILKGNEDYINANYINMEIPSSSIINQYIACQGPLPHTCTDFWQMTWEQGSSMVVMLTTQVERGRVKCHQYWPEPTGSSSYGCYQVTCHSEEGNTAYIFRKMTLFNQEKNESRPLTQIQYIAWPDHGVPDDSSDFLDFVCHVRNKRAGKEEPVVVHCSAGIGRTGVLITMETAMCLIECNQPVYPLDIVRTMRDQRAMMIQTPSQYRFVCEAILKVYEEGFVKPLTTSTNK

O=C(/C=C\Nc1cccc([N+](=O)[O-])c1)c1ccccc1 [DJ001, (Z)-3-((3-nitrophenyl)amino)-1-phenylprop-2-en-1-one] was tested, and the “Supplementary Figure 1: PTP MEG1 activity” value ([1]; 2.7 μg/mL DJ001) was 100 and 92 and 105, the “Supplementary Figure 1: PTP MEG1 activity” value ([1]; 0.27 g/mL DJ001) was 103 and 114 and 105 and the “Supplementary Figure 1: PTP1B activity” value ([2]; 0.27 μg/mL DJ001) was 97 and 90 and 91. The “Supplementary Figure 1: PTP1B activity” value ([2]; 2.7 μg/mL DJ001) was 96 and 86 and 90, the “cytokine levels in BM of non-irradiated mice” value (C57BL/6 mice; 5 mg/kg DJ001 for 5 days) was “no effects on cytokine levels” and the IFN-g (C57BL/6 mice; [3]) was 0.02. For the same compound, the IL-1a (C57BL/6 mice; [3]) was 32.33 and 26.87 and 17.68, the IL-2 (C57BL/6 mice; [3]) was 1.59 and 2.65 and 1.92 and the IL-3 (C57BL/6 mice; [3]) was 1.4. The IL-4 (C57BL/6 mice; [3]) was 1.41, the IL-5 (C57BL/6 mice; [3]) was 3.23 and 2.28 and the IL-6 (C57BL/6 mice; [3]) was 1.83 and 1.7. For the same compound, the IL-9 (C57BL/6 mice; [3]) was 198.07 and 228.02 and 160.28, the IL-10 (C57BL/6 mice; [3]) was 0.57 and the “IL-12(p40)” value (C57BL/6 mice; [3]) was 0.61. For the same compound, the “IL-12(p70)” value (C57BL/6 mice; [3]) was 3.18, the IL-13 (C57BL/6 mice; [3]) was 7.43 and the IL-15 (C57BL/6 mice; [3]) was 2.73. For the same compound, the IL-17 (C57BL/6 mice; [3]) was 0.09, the IP-10 (C57BL/6 mice; [3]) was 44.2 and 47.75 and 46.43 and the LIX (C57BL/6 mice; [3]) was 516.55 and 495.26 and 507.12. For the same compound, the CXCL12 (C57BL/6 mice; [4]) was 552 and 624 and 905, the DKK (C57BL/6 mice; [4]) was 169.52 and 249.19 and 307.94 and the EGF (C57BL/6 mice; [4]) was 11.77 and 17.58 and 11.6. The Eotaxin (C57BL/6 mice; [4]) was 67.39 and 68.27 and 79.6, the G-CSF (C57BL/6 mice; [4]) was 64.72 and 76.01 and 58.45 and the GM-CSF (C57BL/6 mice; [4]) was 15.66. The KC (C57BL/6 mice; [4]) was 22.82 and 26.89 and 24.21, the MCP-1 (C57BL/6 mice; [4]) was 8.72 and 10.08 and 6.75 and the MIG (C57BL/6 mice; [4]) was 128.05 and 148.17 and 148.91. The MIP-1a (C57BL/6 mice; [4]) was 29.47 and 26.14, the MIP-1b (C57BL/6 mice; [4]) was 3.05 and the PTN (C57BL/6 mice; [4]) was 102.04 and 118.97 and 192.81. For the same compound, the RANTES (C57BL/6 mice; [4]) was 2.96 and 2.94, the SCF (C57BL/6 mice; [4]) was 146.274 and 131.091 and 159.522 and the TNF-a (C57BL/6 mice; [4]) was 3.15. The TPO (C57BL/6 mice; [4]) was 49.177 and 67.682 and 63.573, the VEGF (C57BL/6 mice; [4]) was 1.01 and 1.11 and the IL-1b (C57BL/6 mice; [5]) was 0.97. For the same compound, the IL-3 (C57BL/6 mice; [5]) was 1.4, the IL-4 (C57BL/6 mice; [5]) was 1.41 and the IL-5 (C57BL/6 mice; [5]) was 2.28. The IL-7 (C57BL/6 mice; [5]) was 0.9937 and 1.153, the IL-10 (C57BL/6 mice; [5]) was 1.167 and 1.4327 and the “IL-12(p40)” value (C57BL/6 mice; [5]) was 0.74. For the same compound, the “IL-12(p70)” value (C57BL/6 mice; [5]) was 3.18, the IL-13 (C57BL/6 mice; [5]) was 7.43 and 9.117 and the IL-15 (C57BL/6 mice; [5]) was 2.73. The IL-17 (C57BL/6 mice; [5]) was 0.21, the IP-10 (C57BL/6 mice; [5]) was 33.483 and 30.0231 and 37.7364 and the LIF (C57BL/6 mice; [5]) was 0.3842. The LIX (C57BL/6 mice; [5]) was 761.708 and 684.296 and 1083.25, the CXCL12 (C57BL/6 mice; [6]) was 622.694 and 560.08 and 714.605 and the DKK (C57BL/6 mice; [6]) was 277.711 and 227.737 and 332.999. For the same compound, the EGF (C57BL/6 mice; [6]) was 2.362 and 1.271 and 1.363, the Eotaxin (C57BL/6 mice; [6]) was 99.795 and 115.637 and 94.9841 and the G-CSF (C57BL/6 mice; [6]) was 0.02. The GM-CSF (C57BL/6 mice; [6]) was 15.66, the KC (C57BL/6 mice; [6]) was 2.085 and 1.462 and 2.044 and the M-CSF (C57BL/6 mice; [6]) was 2.427 and 3.036 and 4.571. The MCP-1 (C57BL/6 mice; [6]) was 3.63 and 5.244, the MIG (C57BL/6 mice; [6]) was 98.9578 and 70.0219 and 103.204 and the MIP-1b (C57BL/6 mice; [6]) was 7.1682 and 4.315. The MIP-2 (C57BL/6 mice; [6]) was 21.5628 and 31.4245 and 16.3073, the PTN (C57BL/6 mice; [6]) was 163.391 and 261.361 and 175.154 and the RANTES (C57BL/6 mice; [6]) was 4.272 and 4.763 and 5.943. For the same compound, the SCF (C57BL/6 mice; [6]) was 23.6572 and 17.6223 and 24.6635, the TNF-a (C57BL/6 mice; [6]) was 3.15 and the TPO (C57BL/6 mice; [6]) was 7.2054 and 5.699 and 7.158. The VEGF (C57BL/6 mice; [6]) was 1.293 and 2.139 and 2.31, the “CXCL12 levels in BM of irradiated mice vs vehicle” value (C57BL/6 mice; day +5 following 750 cGy TBI) was “modest increase in CXCL12 levels” and the “PTN levels in BM of irradiated mice vs vehicle” value (C57BL/6 mice; day +5 following 750 cGy TBI) was “decrease in PTN levels”. The “phosphorylation of PAK1” value (p-PAK1 in BM KSL cells; BM KSL cells, 1 μg/mL DJ001) was “increased phosphorylation” and the “Figure 3d: p-PAK1 in BM KSL cells” value (p-PAK1 in BM KSL cells; individual replicates) was 50.24 and 54.07 and 49.55 and 58.02 and 54.95.
